Usually Kd stands for the concentration at which binding is half-saturated.

Positions of bridges follow the written chain, without caps; N, C: chain ends. Non-standard residues stand in square brackets, D forms with d. Residues, ends and D or L forms follow the SMILES beside them. NMePhe(3-Cl) = CN[C@@H](Cc1cccc(Cl)c1)C(=O)O; 3Pal(6-NH2) = Nc1ccc(C[C@H](N)C(=O)O)cn1; NMe3Pal = CN[C@@H](Cc1cccnc1)C(=O)O; NMe4Pal = CN[C@@H](Cc1ccncc1)C(=O)O; NMeY = CN[C@@H](Cc1ccc(O)cc1)C(=O)O; 3Pal = N[C@@H](Cc1cccnc1)C(=O)O; 4Pal = N[C@@H](Cc1ccncc1)C(=O)O; PEG4 = NCCOCCOCCOCCOCCC(=O)O

T1 sequence (P02786 89-760 limits assumed): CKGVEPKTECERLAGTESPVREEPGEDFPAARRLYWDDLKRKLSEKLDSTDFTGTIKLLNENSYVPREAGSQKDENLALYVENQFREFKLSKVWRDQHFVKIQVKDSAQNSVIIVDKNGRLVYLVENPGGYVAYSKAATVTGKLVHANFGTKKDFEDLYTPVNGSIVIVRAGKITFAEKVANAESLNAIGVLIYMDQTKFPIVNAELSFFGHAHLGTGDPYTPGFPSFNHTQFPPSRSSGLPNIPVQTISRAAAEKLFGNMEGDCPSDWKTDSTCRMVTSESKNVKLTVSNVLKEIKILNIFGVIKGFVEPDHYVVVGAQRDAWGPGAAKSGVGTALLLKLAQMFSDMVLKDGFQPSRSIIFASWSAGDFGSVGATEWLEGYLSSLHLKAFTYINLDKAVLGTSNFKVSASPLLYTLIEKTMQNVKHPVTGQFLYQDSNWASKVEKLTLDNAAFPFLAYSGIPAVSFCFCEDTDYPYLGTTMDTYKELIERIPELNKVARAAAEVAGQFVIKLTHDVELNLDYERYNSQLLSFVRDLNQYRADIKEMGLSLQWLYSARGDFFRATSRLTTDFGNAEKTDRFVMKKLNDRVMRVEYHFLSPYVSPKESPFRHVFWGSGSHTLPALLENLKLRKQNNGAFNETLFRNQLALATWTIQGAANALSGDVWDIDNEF

This test concerns the target T1, human transferrin receptor (hTfR) (Homo sapiens, UniProt P02786).
T1 construct: made in house
Description: Evaluation of molecular interaction between transferrin receptor (hTfR) and peptide using surface plasmon resonance (SPR). Particulars: surface plasmon resonance, binding to hTfR; KD class symbol; read-out: SPR (KD value). Type of test: binding. The method, boiled down:
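KD values are derived by least-squares fitting of single-cycle kinetic sensorgrams. Peptide series (5–100 nM) flows over recombinant hTfR dimer immobilized on a Ni-NTA chip by EDC/NHS coupling, in pH 8.0 HEPES buffer containing 0.1% BSA and 1.0% DMSO.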
For orientation: SPR reads the build-up and loss of mass on a sensor chip optically.
For `CC[C@H](C)[C@@H]1NC(=O)[C@H](Cc2ccc(OC)cc2)NC(=O)[C@H](Cc2ccc(N)nc2)NC(=O)[C@H](CC(N)=O)NC(=O)[C@H](Cc2c[nH]c3ccccc23)NC(=O)[C@H](C(C)C)NC(=O)[C@H](Cc2cccc(Cl)c2)N(C)C(=O)[C@H](C(C)C)NC(=O)[C@H](C)NC(=O)CSC[C@@H](C(=O)NCCOCCOCCOCCOCCC(N)=O)NC(=O)[C@H](Cc2ccc(O)cc2)N(C)C(=O)[C@H](Cc2ccncc2)NC(=O)[C@H](CCCNC(=N)N)NC(=O)[C@H](CCCNC(=N)N)NC(=O)[C@H]([C@@H](C)CC)NC1=O` [compound 53], the Kd was in the range of 1 to 100 nM. Next, `CC[C@H](C)[C@@H]1NC(=O)[C@H](Cc2ccncc2)NC(=O)[C@H](Cc2ccc(O)cc2)NC(=O)[C@H](CC(N)=O)NC(=O)[C@H](Cc2c[nH]c3ccccc23)NC(=O)[C@H](C(C)C)NC(=O)[C@H](Cc2cccc(Cl)c2)N(C)C(=O)[C@H](C(C)C)NC(=O)[C@H](C)NC(=O)CSC[C@@H](C(=O)NCCOCCOCCOCCOCCC(N)=O)NC(=O)[C@H](Cc2ccc(O)cc2)N(C)C(=O)[C@H](Cc2ccncc2)NC(=O)[C@H](CCCNC(=N)N)NC(=O)[C@H](CCCNC(=N)N)NC(=O)[C@H]([C@@H](C)CC)NC1=O` [compound 54] ({CH2CO}-AV[NMePhe(3-Cl)]VWNY[4Pal]IIRR[4Pal][NMeY]C[PEG4]-NH2; thioether N-15): 1 to 100 nM. Consider `CC[C@H](C)[C@@H]1NC(=O)[C@H](Cc2ccc(OC)cc2)NC(=O)[C@H](Cc2ccc(O)cc2)NC(=O)[C@H](CC(N)=O)NC(=O)[C@H](Cc2c[nH]c3ccccc23)NC(=O)[C@H](C(C)C)NC(=O)[C@H](Cc2cccnc2)N(C)C(=O)[C@H](C(C)C)NC(=O)[C@H](C)NC(=O)CSC[C@@H](C(=O)NCCOCCOCCOCCOCCC(N)=O)NC(=O)[C@H](Cc2ccc(O)cc2)N(C)C(=O)[C@H](Cc2ccccc2)NC(=O)[C@H](CCCNC(=N)N)NC(=O)[C@H](CCCNC(=N)N)NC(=O)[C@H]([C@@H](C)CC)NC1=O` [compound 55], for which the dissociation constant (Kd) was 1 to 100 nM.

`CC[C@H](C)[C@@H]1NC(=O)[C@H](Cc2ccc(OC)cc2)NC(=O)[C@H](Cc2ccc(O)cc2)NC(=O)[C@H](CC(N)=O)NC(=O)[C@H](Cc2c[nH]c3ccccc23)NC(=O)[C@H](C(C)C)NC(=O)[C@H](Cc2ccncc2)N(C)C(=O)[C@H](C(C)C)NC(=O)[C@H](C)NC(=O)CSC[C@@H](C(=O)NCCOCCOCCOCCOCCC(N)=O)NC(=O)[C@H](Cc2ccc(O)cc2)N(C)C(=O)[C@H](Cc2ccccc2)NC(=O)[C@H](CCCNC(=N)N)NC(=O)[C@H](CCCNC(=N)N)NC(=O)[C@H]([C@@H](C)CC)NC1=O` [compound 56]: the dissociation constant (Kd) was 1 to 100 nM. Next, `CC[C@H](C)[C@@H]1NC(=O)[C@H](Cc2ccc(OC)cc2)NC(=O)[C@H](Cc2ccc(N)nc2)NC(=O)[C@H](CC(N)=O)NC(=O)[C@H](Cc2c[nH]c3ccccc23)NC(=O)[C@H](C(C)C)NC(=O)[C@H](Cc2cccc(Cl)c2)N(C)C(=O)[C@H](C(C)C)NC(=O)[C@H](C)NC(=O)CSC[C@@H](C(=O)NCCOCCOCCOCCOCCC(N)=O)NC(=O)[C@H](Cc2ccc(O)cc2)N(C)C(=O)[C@H](Cc2ccccc2)NC(=O)[C@H](CCCNC(=N)N)NC(=O)[C@H](CCCNC(=N)N)NC(=O)[C@H]([C@@H](C)CC)NC1=O` [compound 57] ({CH2CO}-AV[NMePhe(3-Cl)]VWN[3Pal(6-NH2)]Y(Me)IIRRF[NMeY]C[PEG4]-NH2; thioether N-15): 1 to 100 nM; `CC[C@H](C)[C@@H]1NC(=O)[C@H](Cc2ccc(OC)cc2)NC(=O)[C@H](Cc2ccc(O)cc2)NC(=O)[C@H](CC(N)=O)NC(=O)[C@H](Cc2c[nH]c3ccccc23)NC(=O)[C@H](C(C)C)NC(=O)[C@H](Cc2cccnc2)N(C)C(=O)[C@H](C(C)C)NC(=O)[C@H](C)NC(=O)CSC[C@@H](C(=O)NCCOCCOCCOCCOCCC(N)=O)NC(=O)[C@H](Cc2ccc(O)cc2)N(C)C(=O)[C@H](Cc2ccncc2)NC(=O)[C@H](CCCNC(=N)N)NC(=O)[C@H](CCCNC(=N)N)NC(=O)[C@H]([C@@H](C)CC)NC1=O` [compound 58] ({CH2CO}-AV[NMe3Pal]VWNYY(Me)IIRR[4Pal][NMeY]C[PEG4]-NH2; thioether N-15): 1 to 100 nM. As to `CC[C@H](C)[C@@H]1NC(=O)[C@H](Cc2ccc(OC)cc2)NC(=O)[C@H](Cc2ccc(O)cc2)NC(=O)[C@H](CC(N)=O)NC(=O)[C@H](Cc2c[nH]c3ccccc23)NC(=O)[C@H](C(C)C)NC(=O)[C@H](Cc2cccc(Cl)c2)N(C)C(=O)[C@H](C(C)C)NC(=O)[C@H](C)NC(=O)CSC[C@@H](C(=O)NCCOCCOCCOCCOCCC(N)=O)NC(=O)[C@H](Cc2ccc(O)cc2)N(C)C(=O)[C@H](Cc2ccncc2)NC(=O)[C@H](CCCNC(=N)N)NC(=O)[C@H](CCCNC(=N)N)NC(=O)[C@H]([C@@H](C)CC)NC1=O` [compound 59], the equilibrium dissociation constant (Kd) was < 1 nM.

`CC[C@H](C)[C@@H]1NC(=O)[C@H](Cc2cccnc2)NC(=O)[C@H](Cc2ccc(O)cc2)NC(=O)[C@H](CC(N)=O)NC(=O)[C@H](Cc2c[nH]c3ccccc23)NC(=O)[C@H](C(C)C)NC(=O)[C@H](Cc2cccc(Cl)c2)N(C)C(=O)[C@H](C(C)C)NC(=O)[C@H](C)NC(=O)CSC[C@@H](C(=O)NCCOCCOCCOCCOCCC(N)=O)NC(=O)[C@H](Cc2ccc(O)cc2)N(C)C(=O)[C@H](Cc2ccccc2)NC(=O)[C@H](CCCNC(=N)N)NC(=O)[C@H](CCCNC(=N)N)NC(=O)[C@H]([C@@H](C)CC)NC1=O` [compound 60] ({CH2CO}-AV[NMePhe(3-Cl)]VWNY[3Pal]IIRRF[NMeY]C[PEG4]-NH2; thioether N-15): the Kd fell in the range of 1 to 100 nM. Next, `CC[C@H](C)[C@@H]1NC(=O)[C@H](Cc2ccncc2)NC(=O)[C@H](Cc2ccc(O)cc2)NC(=O)[C@H](CC(N)=O)NC(=O)[C@H](Cc2c[nH]c3ccccc23)NC(=O)[C@H](C(C)C)NC(=O)[C@H](Cc2cccc(Cl)c2)N(C)C(=O)[C@H](C(C)C)NC(=O)[C@H](C)NC(=O)CSC[C@@H](C(=O)NCCOCCOCCOCCOCCC(N)=O)NC(=O)[C@H](Cc2ccc(O)cc2)N(C)C(=O)[C@H](Cc2ccccc2)NC(=O)[C@H](CCCNC(=N)N)NC(=O)[C@H](CCCNC(=N)N)NC(=O)[C@H]([C@@H](C)CC)NC1=O` [compound 61] ({CH2CO}-AV[NMePhe(3-Cl)]VWNY[4Pal]IIRRF[NMeY]C[PEG4]-NH2; thioether N-15): 1 to 100 nM; `CC[C@H](C)[C@@H]1NC(=O)[C@H](Cc2ccncc2)NC(=O)[C@H](Cc2ccc(N)nc2)NC(=O)[C@H](CC(N)=O)NC(=O)[C@H](Cc2c[nH]c3ccccc23)NC(=O)[C@H](C(C)C)NC(=O)[C@H](Cc2cccc(Cl)c2)N(C)C(=O)[C@H](C(C)C)NC(=O)[C@H](C)NC(=O)CSC[C@@H](C(=O)NCCOCCOCCOCCOCCC(N)=O)NC(=O)[C@H](Cc2ccc(O)cc2)N(C)C(=O)[C@H](Cc2ccncc2)NC(=O)[C@H](CCCNC(=N)N)NC(=O)[C@H](CCCNC(=N)N)NC(=O)[C@H]([C@@H](C)CC)NC1=O` [compound 62] ({CH2CO}-AV[NMePhe(3-Cl)]VWN[3Pal(6-NH2)][4Pal]IIRR[4Pal][NMeY]C[PEG4]-NH2; thioether N-15): 1 to 100 nM; `CC[C@H](C)[C@@H]1NC(=O)[C@H](Cc2ccc(OC)cc2)NC(=O)[C@H](Cc2ccc(N)nc2)NC(=O)[C@H](CC(N)=O)NC(=O)[C@H](Cc2c[nH]c3ccccc23)NC(=O)[C@H](C(C)C)NC(=O)[C@H](Cc2cccnc2)N(C)C(=O)[C@H](C(C)C)NC(=O)[C@H](C)NC(=O)CSC[C@@H](C(=O)NCCOCCOCCOCCOCCC(N)=O)NC(=O)[C@H](Cc2ccc(O)cc2)N(C)C(=O)[C@H](Cc2ccccc2)NC(=O)[C@H](CCCNC(=N)N)NC(=O)[C@H](CCCNC(=N)N)NC(=O)[C@H]([C@@H](C)CC)NC1=O` [compound 63] ({CH2CO}-AV[NMe3Pal]VWN[3Pal(6-NH2)]Y(Me)IIRRF[NMeY]C[PEG4]-NH2; thioether N-15): 1 to 100 nM.

In the case of `CC[C@H](C)[C@@H]1NC(=O)[C@H](Cc2ccc(OC)cc2)NC(=O)[C@H](Cc2ccc(N)nc2)NC(=O)[C@H](CC(N)=O)NC(=O)[C@H](Cc2c[nH]c3ccccc23)NC(=O)[C@H](C(C)C)NC(=O)[C@H](Cc2ccncc2)N(C)C(=O)[C@H](C(C)C)NC(=O)[C@H](C)NC(=O)CSC[C@@H](C(=O)NCCOCCOCCOCCOCCC(N)=O)NC(=O)[C@H](Cc2ccc(O)cc2)N(C)C(=O)[C@H](Cc2ccccc2)NC(=O)[C@H](CCCNC(=N)N)NC(=O)[C@H](CCCNC(=N)N)NC(=O)[C@H]([C@@H](C)CC)NC1=O` [compound 64] ({CH2CO}-AV[NMe4Pal]VWN[3Pal(6-NH2)]Y(Me)IIRRF[NMeY]C[PEG4]-NH2; thioether N-15), the dissociation constant Kd lay within 1 to 100 nM. Consider `CC[C@H](C)[C@@H]1NC(=O)[C@H](Cc2ccc(OC)cc2)NC(=O)[C@H](Cc2ccc(O)cc2)NC(=O)[C@H](CC(N)=O)NC(=O)[C@H](Cc2c[nH]c3ncccc23)NC(=O)[C@H](C(C)C)NC(=O)[C@H](Cc2cccc(Cl)c2)N(C)C(=O)[C@H](C(C)C)NC(=O)[C@H](C)NC(=O)CSC[C@@H](C(=O)NCCOCCOCCOCCOCCC(N)=O)NC(=O)[C@H](Cc2ccc(O)cc2)N(C)C(=O)[C@H](Cc2ccncc2)NC(=O)[C@H](CCCNC(=N)N)NC(=O)[C@H](CCCNC(=N)N)NC(=O)[C@H]([C@@H](C)CC)NC1=O` [compound 65], for which the dissociation constant (Kd) lay in the range of 1 to 100 nM. Take `CC[C@H](C)[C@@H]1NC(=O)[C@H](Cc2ccc(OC)cc2)NC(=O)[C@H](Cc2ccc(O)cc2)NC(=O)[C@H](CC(N)=O)NC(=O)[C@H](Cc2c[nH]c3ccccc23)NC(=O)[C@H](C(C)C)NC(=O)[C@H](Cc2cccc(Cl)c2)N(C)C(=O)[C@H](C(C)C)NC(=O)[C@H](C)NC(=O)CSC[C@@H](C(=O)NCCOCCOCCOCCOCCC(N)=O)NC(=O)[C@H](Cc2cccnc2)N(C)C(=O)[C@H](Cc2ccncc2)NC(=O)[C@H](CCCNC(=N)N)NC(=O)[C@H](CCCNC(=N)N)NC(=O)[C@H]([C@@H](C)CC)NC1=O` [compound 66]: the Kd fell in the range of 1 to 100 nM.

For the origin of these results see patent US20260116920A1, “HUMAN TRANSFERRIN RECEPTOR BINDING PEPTIDE” (PEPTIDREAM INC., priority 2021, published 2026).
